Measurements from patent EP4095134A1, “POLYCYCLIC COMPOUNDS FOR THE TREATMENT OF NEUROLOGICAL INDICATIONS” (UCL Business Ltd, priority 2021, dated 2022).

target: T1, P2Y1 receptor (Homo sapiens, UniProt P47900); test: P2Y1 IP1 accumulation HTRF assay, antagonism of agonist MRS2365 in stably transfected cells; assay type: cell-based; conditions: at maximum tested concentration of 10000 nM; full dose-response curve not generated
T1 construct: expressed in transfected cells
Protocol: IC50 values were determined using a cell based assay in stably transfected cells overexpressing the P2Y1 receptor. The assay system is a […] (HTRF) assay measuring accumulation of the intracellular messenger inositol monophosphate (IP1), generated intracellularly following activation of P2Y1. Activity of test compounds was generated by measuring antagonism of the increase in IP1 generated by addition of a selective P2Y1 agonist, MRS2365.
P2Y1 overexpressing cells were maintained in T175 flasks. The day before the assay, these cells were split and 20µl cell suspension transferred to each well of white 384-well assay plates at a cell density of 0.5x10^6 cells/mL. Plates were pulse centrifuged, then incubated overnight at 37°C / 5% CO2 prior to assay.
On day of assay, medium was removed from cells and replaced with stimulation buffer. Compounds were prepared in 100% DMSO for addition to cells using the Tecan D300e digital dispenser; compounds were prepared in cassette heads and added directly to wells in the required concentration range, to give a 10-point concentration response curve from 10µM with semi-log dilutions and a final DMSO concentration of 0.1%. Positive control antagonist curves with standard compounds were included on each plate. Plates were incubated with antagonists for 1 hour prior to addition of 5nM of the agonist MRS2365, dispensed using a Bravo liquid handler. Following agonist addition, plates were incubated for 60 minutes prior to assay. Both incubations were carried out at 37°C / 5% CO2.
For the assay, IP1 accumulation was quantified using the IPOne kit according to manufacturer's instructions. In short, a standard curve was prepared for IP 1 quantification, and cells lysed using kit lysis buffer. Assay reagents were added to the lysates, and incubated for 1 hour at room temperature without spinning or shaking. Plates were analysed on a BMG Pherastar plate reader, and IP1 signal generated in cells interpolated from the standard curve.
For all reported results, N is greater than or equal to 4. An individual N refers to one assay run with a single weighing of compound. A minimum of two assay runs were performed for each of two independent weighings of compound. Results (racemic)

T1 sequence (P47900 whole entry): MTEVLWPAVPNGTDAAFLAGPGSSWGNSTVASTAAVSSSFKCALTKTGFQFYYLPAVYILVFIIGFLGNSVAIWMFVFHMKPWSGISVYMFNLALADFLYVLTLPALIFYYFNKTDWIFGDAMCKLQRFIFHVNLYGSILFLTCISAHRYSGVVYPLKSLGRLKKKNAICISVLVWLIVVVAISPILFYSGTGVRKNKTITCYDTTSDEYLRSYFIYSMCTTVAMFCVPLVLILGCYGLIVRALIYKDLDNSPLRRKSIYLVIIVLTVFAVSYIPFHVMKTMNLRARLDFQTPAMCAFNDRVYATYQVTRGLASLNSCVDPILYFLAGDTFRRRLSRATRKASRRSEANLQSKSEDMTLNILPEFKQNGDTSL

SMILES | inhibition at 10 µM [%]
COc1ccc2nc(Nc3cccnc3Oc3ccc(F)cc3C3(C(F)(F)F)CCO3)[nH]c2n1 (racemic) [S96] | 56

same assay, conditions: racemic; 5nM MRS2365; values rounded to nearest whole number; N >= 4

IC50 [µM] | SMILES
1.33 | COc1ncc(NC(=O)Nc2cccnc2Oc2ccc(F)cc2C2(C(F)(F)F)CCO2)cc1F (racemic) [S68, 1-(2-(4-fluoro-2-(2-(trifluoromethyl)oxetan-2-yl)phenoxy)pyridin-3-yl)-3-(5-fluoro-6-methoxypyridin-3-yl)urea]
1.41 | Cc1ncc(NC(=O)Nc2ccc(Cl)cc2)c(Oc2ccccc2C2(C(F)(F)F)CCO2)n1 (racemic) [S69, 1-(4-chlorophenyl)-3-(2-methyl-4-(2-(2-(trifluoromethyl)oxetan-2-yl)phenoxy)pyrimidin-5-yl)urea]
1.45 | O=C(Nc1ccc2c(c1)OCO2)Nc1cccnc1Oc1ccccc1C1(C(F)(F)F)CCO1 (racemic) [S70, 1-(benzo[d][1,3]dioxol-5-yl)-3-(2-(2-(2-(trifluoromethyl)oxetan-2-yl)phenoxy)pyridin-3-yl)urea]
1.48 | O=C(Nc1ccc(C(F)(F)F)nc1)Nc1cccnc1Oc1ccccc1C1(C(F)(F)F)CCO1 (racemic) [S71, 1-(2-(2-(2-(trifluoromethyl)oxetan-2-yl)phenoxy)pyridin-3-yl)-3-(6-(trifluoromethyl)pyridin-3-yl)urea]
1.49 | N#Cc1ccc(NC(=O)Nc2cccnc2Oc2ccccc2C2(C(F)(F)F)CCO2)c(F)c1 (racemic) [S72, 1-(4-cyano-2-fluorophenyl)-3-(2-(2-(2-(trifluoromethyl)oxetan-2-yl)phenoxy)pyridin-3-yl)urea]
1.69 | FC(F)(F)c1nnc(Nc2cccnc2Oc2ccccc2C2(C(F)(F)F)CCO2)s1 (racemic) [S73]
2.14 | O=C(Nc1cccnc1Oc1ccccc1C1(C(F)(F)F)CCO1)NC1CC2(CC2)C1 (racemic) [S74]
2.65 | COc1ccc(NC(=O)Nc2ccc(C)nc2Oc2ccc(F)cc2C2(C(F)(F)F)CCO2)cn1 (racemic) [S75, 1-(2-(4-fluoro-2-(2-(trifluoromethyl)oxetan-2-yl)phenoxy)-6-methylpyridin-3-yl)-3-(6-methoxypyridin-3-yl)urea]
3.14 | COc1cc(NC(=O)Nc2ccc(C)nc2Oc2ccc(F)cc2C2(C(F)(F)F)CCO2)ccn1 (racemic) [S77, 1-(2-(4-fluoro-2-(2-(trifluoromethyl)oxetan-2-yl)phenoxy)-6-methylpyridin-3-yl)-3-(2-methoxypyridin-4-yl)urea]
3.16 | Cn1c(C(F)(F)F)nc2ccc(NC(=O)Nc3cccnc3Oc3ccccc3C3(C(F)(F)F)CCO3)cc21 (racemic) [S78, 1-(1-methyl-2-(trifluoromethyl)-1H-benzo[d]imidazol-6-yl)-3-(2-(2-(2-(trifluoromethyl)oxetan-2-yl)phenoxy)pyridin-3-yl)urea]
3.17 | N#Cc1ccc(NC(=O)Nc2cccnc2Oc2ccccc2C2(C(F)(F)F)CCO2)cc1 (racemic) [S79, 1-(4-cyanophenyl)-3-(2-(2-(2-(trifluoromethyl)oxetan-2-yl)phenoxy)pyridin-3-yl)urea]
3.28 | O=C(Nc1ccccc1)Nc1cccnc1Oc1ccccc1C1(C(F)F)CCO1 (racemic) [S80]
4.71 | CN1C(=O)CC1(c1ccccc1Oc1ncccc1NC(=O)Nc1ccc(OC(F)(F)F)cc1)C(F)F (racemic) [S83]
4.94 | O=C(Nc1nc2ccccc2[nH]1)Nc1cccnc1Oc1ccccc1C1(C(F)(F)F)CCO1 (racemic) [S84, 1-(1H-benzo[d]imidazol-2-yl)-3-(2-(2-(2-(trifluoromethyl)oxetan-2-yl)phenoxy)pyridin-3-yl)urea]
5.58 | Cn1c(C(F)F)nc2ccc(NC(=O)Nc3cccnc3Oc3ccccc3C3(C(F)(F)F)CCO3)cc21 (racemic) [S85, 1-(2-(difluoromethyl)-1-methyl-1H-benzo[d]imidazol-6-yl)-3-(2-(2-(2-(trifluoromethyl)oxetan-2-yl)phenoxy)pyridin-3-yl)urea]
6.05 | Cc1ccc(NC(=O)NC2CC3(C2)CC(F)(F)C3)c(Oc2ccc(F)cc2C2(C(F)(F)F)CCO2)n1 (racemic) [S86, 1-(6,6-difluorospiro[3.3]heptan-2-yl)-3-(2-(4-fluoro-2-(2-(trifluoromethyl)oxetan-2-yl)phenoxy)-6-methylpyridin-3-yl)urea]
4.59 | O=C(Nc1ccc(OC(F)(F)F)cc1)Nc1cccnc1Oc1ccccc1C1COC1 (racemic) [S87]
1.16 | Cc1cccc(Oc2ncccc2NC(=O)Nc2ccc(OC(F)(F)F)cc2)c1C1COC1 (racemic) [S88]
0.071 | CN1CCC1(c1ccccc1Oc1ncccc1NC(=O)Nc1ccc(OC(F)(F)F)cc1)C(F)(F)F (racemic) [S89]
0.322 | O=C(Nc1ccc(OC(F)(F)F)cc1)Nc1cccnc1Oc1cccc(C2(C(F)(F)F)CCO2)c1 (racemic) [S90, 1-(4-(trifluoromethoxy)phenyl)-3-(2-(3-(2-(trifluoromethyl)oxetan-2-yl)phenoxy)pyridin-3-yl)urea]
1.37 | Cc1c(Oc2ncccc2NC(=O)Nc2ccc(OC(F)(F)F)cc2)cccc1C1COC1 (racemic) [S91]
2.79 | O=C(Nc1ccc(OC(F)(F)F)cc1)Nc1cccnc1Oc1cccc(C2COC2)c1 (racemic) [S92]
0.889 | Cc1c(Oc2ncccc2NC(=O)Nc2ccc(OC(F)(F)F)cc2)cccc1N1CCC1 (racemic) [S94]
0.036 | CC1(c2ccccc2Oc2ncccc2NC(=O)Nc2ccc(OC(F)(F)F)cc2)CCC1 (racemic) [S95]
1.01 | Fc1ccc(Oc2ncccc2Nc2nc3ccc(C(F)(F)F)cc3[nH]2)c(C2(C(F)(F)F)CCO2)c1 (racemic) [S97]
0.045 | O=C(Nc1ccc(OC(F)(F)F)cc1)Nc1cccnc1Oc1ccccc1C1(C(F)(F)F)CCN1CC1CC1 (racemic) [S116]
0.039 | CC(C)(C)CN1CCC1(c1ccccc1Oc1ncccc1NC(=O)Nc1ccc(OC(F)(F)F)cc1)C(F)(F)F (racemic) [S117]
0.121 | O=C(Nc1ccc(OC(F)(F)F)cc1)Nc1cccnc1Oc1ccccc1C1(C(F)F)CCN1CCF (racemic) [S118]
1.24 | Cc1cc2nc(Nc3cccnc3Oc3ccc(F)cc3C3(C(F)(F)F)CCO3)[nH]c2cc1C (racemic) [S120]
1.44 | Fc1ccc(Oc2ncccc2Nc2nc3ccc(OC(F)(F)F)cc3[nH]2)c(C2(C(F)(F)F)CCO2)c1 (racemic) [S121]

SMILES | IC50 [µM]
Cc1ccc(Nc2nnc(C(F)F)s2)c(Oc2ccc(F)cc2C2(C(F)(F)F)CCO2)n1 (racemic) [S76] | 3.05
Cc1ncc(NC(=O)Nc2ccc(OC3CC(F)(F)C3)cc2)c(Oc2ccccc2C2(C(F)(F)F)CCO2)n1 (racemic) [S81, 1-(4-(3,3-difluorocyclobutoxy)phenyl)-3-(2-methyl-4-(2-(2-(trifluoromethyl)oxetan-2-yl)phenoxy)pyrimidin-5-yl)urea] | 3.53
FC(F)c1nnc(Nc2cccnc2Oc2ccccc2C2(C(F)(F)F)CCO2)s1 (racemic) [S82] | 4.53
COc1ccc2nc(Nc3cccnc3Oc3ccc(F)cc3C3(C(F)(F)F)CCO3)[nH]c2n1 (racemic) [S119] | 0.721
Cc1c(Oc2ncccc2NC(=O)Nc2ccc(OC(F)(F)F)cc2)cccc1N1CC(C)(C)C1 [S93] | 0.683

same assay, conditions: single enantiomer; 5nM MRS2365; values rounded to nearest whole number

IC50 [µM] | SMILES
0.068 | Cc1ccc(NC(=O)Nc2ccc(OC(F)(F)F)cc2F)c(Oc2ccccc2[C@]2(C(F)(F)F)CCO2)n1 (racemic) [S104]
0.077 | CN1CC[C@]1(c1ccccc1Oc1ncccc1NC(=O)Nc1ccc(OC(F)(F)F)cc1)C(F)(F)F (racemic) [S105]
0.126 | Cc1ccc(NC(=O)Nc2ccc(Cl)cc2F)c(Oc2ccccc2[C@]2(C(F)(F)F)CCO2)n1 (racemic) [S109]
0.026 | CN1CC[C@@]1(c1ccccc1Oc1ncccc1NC(=O)Nc1ccc(OC(F)(F)F)cc1F)C(F)(F)F (single isomer, unassigned) [S98]
0.029 | Cc1ccc(NC(=O)Nc2ccc(C(C)(C)C(F)(F)F)cc2)c(Oc2ccccc2[C@@]2(C(F)(F)F)CCO2)n1 (single isomer, unassigned) [S99]
0.044 | O=C(Nc1cc(F)c(Cl)cc1F)Nc1cccnc1Oc1ccccc1[C@@]1(C(F)(F)F)CCO1 (single isomer, unassigned) [S100]
0.052 | CN1CC[C@]1(c1ccccc1Oc1ncccc1NC(=O)Nc1ccc(OC(F)(F)F)cc1F)C(F)(F)F (single isomer, unassigned) [S102]
0.018 | Cc1ccc(NC(=O)Nc2ccc(C(C)C)cc2F)c(Oc2ccccc2[C@@]2(C(F)(F)F)CCO2)n1 (single isomer, unassigned) [S122]
0.113 | O=C(Nc1ccc(OC(F)(F)F)cc1F)Nc1cccnc1Oc1ccccc1[C@]1(C(F)(F)F)CCO1 [S107]

SMILES | IC50 [µM]
CC(C)(c1ccc(NC(=O)Nc2cccnc2Oc2ccccc2[C@@]2(C(F)(F)F)CCO2)cc1)C(F)(F)F [S101] | 0.048
O=C(Nc1cccnc1Oc1ccccc1[C@@]1(C(F)(F)F)CCO1)Nc1ccc(Cl)c(F)c1F [S108] | 0.125
